Source: patent US20150320705A1, “METHOD OF INHIBITING OR TREATING AMYOTROPHIC LATERAL SCLEROSIS WITH PHENOXYALKYLCARBOXYLIC ACIDS” (priority 2014, published 2015)

Experiments:
SOD deficient flies = format: in vivo, Drosophila; settings: flies with interfered SOD gene, MN-001 tested at 0.08 mM, 0.8 mM, 8 mM (DMSO), FIG. 3
Experimental: Drosophila males will be collected and keep on fly food for 24 h. Then flies will be transferred to vials containing 3-mm paper filter disks saturated with 250 μl of 1% sucrose containing 2 mM paraquat or 1% sucrose, 2 mM paraquat and the tested compound. The vials will be stored at 25° C. in the dark, and flies are enumerated after 24 h.
Three replicas for each concentration will be performed in the same day and three replicas of the assay will be performed in different days.
The experiment includes the analysis of four compound concentrations (10, 100, 250 and 1000 μM) and will evaluate 360 flies for each concentration (8 replicates×3 days with 15 flies each one). Resistance to paraquat treatment will be indicative of positive activity of the compound tested. See, FIG. 2.
MN-001 was tested at concentrations of 0.08 mM, 0.8 mM, 8 mM (DMSO).

VAPB Drosophila mutants = experiment: Evaluation of anti-ALS activity on VAPB Drosophila mutants (viability); format: in vivo; settings: VAPB mutant flies; for adult flies observed from seeded larvae: 3 replicates for riluzole and vitamin D (45 larvae seeded), 8 for MN-001 (120 larvae seeded)

Row | Compound | survival (or survivorship) percentages after paraquat exposure (SOD deficient flies) | adult flies observed from seeded larvae (VAPB Drosophila mutants) | viability (VAPB Drosophila mutants; compared with DMSO)
1 | CCCc1c(SCCCOc2ccc(C(C)=O)c(OCCCC(=O)O)c2CCC)ccc(C(C)=O)c1O [MN-001] | increased this survival in a dose dependent manner | 5 of 8 wells displayed adults but only 1 adult in each of them | increase viability in a statistically significant manner
2 | Nc1nc2ccc(OC(F)(F)F)cc2s1 [riluzole] |  | No adult flies were observed | 
3 | vitamin D |  | 1 adult was observed in one of the 3 replicates | 
4 | vitamin E | increased this percentage |  | 
